What was measured:
WT BCL-xL = target: T1, WT BCL-xL (Homo sapiens, UniProt Q07817); assay: AlphaScreen displacement binary binding assay, WT BCL-xL; settings: for Kd: Supplementary Fig. 11
T1 construct: BCL-xL (aa 2-212) and BCL-2 (aa 1-207) transformed cells were grown in LB broth; SMT3 (N); made in house; host or cells: E. coli BL21 (DE3) codon plus
Description: To test the binary/ternary binding affinities of compounds to BCL-2/BCL-xL, AlphaScreen displacement binding assay was performed to test the capabilities of testing compounds to displace a Biotin-tagged Bim (Biotin-[…]) or Bad (Biotin-[…]) from BCL-2 or BCL-xL for BCL-2 and BCL-xL binding affinities, respectively. All reagents were diluted in assay buffer of 25 mM HEPES, pH 7.5, 150 mM NaCl, 0.1% BSA, and 0.005% tween 20 prior incubation. To a 96-well PCR plate (VWR, Cat. No. 82006-636) was added 10 μL Biotin-tagged Bim (15 nM for WT or 50 nM for mutants) or Bad (15 nM for WT or 50 nM for mutants), 10 μL series diluted compounds solution (2 or 3 or 4× dilution), and 10 μL self-made 6×His tagged BCL-2 WT or mutants (25 nM WT or 50 nM mutants) or 10 μL self-made BCL-xL WT and mutants (10 nM WT or 50 nM mutants). After incubating at room temperature for 30 min, 5 µL of 160 μg/mL of anti-6×His acceptor beads (PerkinElmer, Cat. No. AL128M) was added and the mixture was incubated at room temperature for 15 min. 5 µL of 160 μg/mL of streptavidin donor beads (PerkinElmer, 6760002) was then added under subdued light and the mixture was incubated at dark for 30 min before being transferred to two adjacent wells (17 µL each) of 384-well white OptiPlate (PerkinElmer, Cat. No. 6008280). The luminescence signal was detected on a Biotek’s Synergy Neo2 multimode plate reader installed with an AphaScreen filter cube. The Ki values of each compounds were calculated by fitting data into the “Binding-competitive, One site-Fit Ki” function in GraphPad Prism (9.2.0) based on concentrations of Biotin–peptide used and experimentally determined Kd values of each 6×His protein &&&and Biotin–Peptide pair.

BCL-xL D107A = target: T2, BCL-xL D107A (Homo sapiens, UniProt Q07817, D107A); assay: AlphaScreen binary binding, BCL-xL D107A; settings: mean ± s.d., n=3
T2 construct: BCL-xL (aa 2-212) and BCL-2 (aa 1-207) transformed cells were grown in LB broth; SMT3 (N); made in house; host or cells: E. coli BL21 (DE3) codon plus
Description: (§1) To test the binary/ternary binding affinities of compounds to BCL-2/BCL-xL, AlphaScreen displacement binding assay was performed to test the capabilities of testing compounds to displace a Biotin-tagged Bim (Biotin-[…]) or Bad (Biotin-[…]) from BCL-2 or BCL-xL for BCL-2 and BCL-xL binding affinities, respectively. All reagents were diluted in assay buffer of 25 mM HEPES, pH 7.5, 150 mM NaCl, 0.1% BSA, and 0.005% tween 20 prior incubation. To a 96-well PCR plate (VWR, Cat. No. 82006-636) was added 10 μL Biotin-tagged Bim (15 nM for WT or 50 nM for mutants) or Bad (15 nM for WT or 50 nM for mutants), 10 μL series diluted compounds solution (2 or 3 or 4× dilution), and 10 μL self-made 6×His tagged BCL-2 WT or mutants (25 nM WT or 50 nM mutants) or 10 μL self-made BCL-xL WT and mutants (10 nM WT or 50 nM mutants). […] The luminescence signal was detected on a Biotek’s Synergy Neo2 multimode plate reader installed with an AphaScreen filter cube. The Ki values of each compounds were calculated by fitting data into the “Binding-competitive, One site-Fit Ki” function in GraphPad Prism (9.2.0) based on concentrations of Biotin–peptide used and experimentally determined Kd values of each 6×His protein &&&and Biotin–Peptide pair.

[1] = target: T3, VCB/PROTAC/BCL-xL ternary complex (Homo sapiens, UniProt P40337+Q07817); assay: AlphaLISA ternary complex assay VCB/PROTAC/BCL-xL; assay type: binding; settings: cell-free AlphaLISA
T3 construct: BCL-xL (aa 2-212) and BCL-2 (aa 1-207) transformed cells were grown in LB broth; SMT3 (N); GST (on the VCB complex); made in house; host or cells: E. coli BL21 (DE3) codon plus (stated for the BCL-xL construct)
Description: Assays were performed at room temperature. All reagents were diluted in assay buffer of 25 mM HEPES, pH 7.5, 150 mM NaCl, 0.1% BSA, and 0.005% tween 20. To a 96-well PCR plate (VWR, Cat. No. 82006-636) were added 10 μL self-made 6×His tagged BCL-xL (100 nM) or BCL-2 (150 nM), 10 μL series diluted compounds solution (4× dilution) and 10 μL of self-made GST-VCB (100 nM). After incubating at room temperature for 15 min, 5 µL of alpha glutathione-donor beads (160 μg/mL, PerkinElmer, Cat. No. 6765300) and 5 µL of anti-6×His acceptor beads (160 μg/mL, PerkinElmer, Cat. No. AL128M) to each well and incubated for additional 45 min in the dark before being transferred to two adjacent wells (17 µL each) of 384-well white OptiPlate (PerkinElmer, Cat. No. 6008280). The luminescence signal was detected on a Biotek’s Synergy Neo2 multimode plate reader installed with an AphaScreen filter cube. Intensity values were plotted in Graphpad Prism (9.2.0) with PROTAC concentration values represented on a log10 scale.

HiBiT-BCL-xL/HaloTag-VHL = target: T4, HiBiT-BCL-xL/HaloTag-VHL (Homo sapiens, UniProt P40337+Q07817); assay: NanoBRET ternary complex formation assay in 293T cells, HiBiT-BCL-xL and HaloTag-VHL; assay type: cell-based; settings: 4 h, MG132 pretreatment
T4 construct: full-length BCL-xL and BCL-2 were expressed in cells for the nanoBRET assay; host or cells: 293T
Description: (§2) Plasmids HaloTag-VHL (Cat. No. CS1679C155) and CMV HiBiT (Cat. No. CS1956B03) were purchased from Promega. HiBiT-BCL-xL and HiBiT-BCL-2 were constructed previously. 293T cells (8 × 10^5 cells/well in a 6-well plate) were transfected with Lipofectamine (Life Technologies) and 1 μg HaloTag-VHL, 20 ng HiBiT-BCL-xL and 20 ng LgBiT or 1 μg HaloTag-VHL, 20 ng HiBiT-BCL-2 and 20 ng LgBiT. After 48 h, 2 × 10^4 transfected cells were seeded into each well of white 96-well tissue culture plates in Gibco™ Opti-MEM™ I Reduced Serum Medium, No Phenol Red (Cat. No. 11-058-021, Fisher) containing 4% FBS with or without HaloTag NanoBRET 618 Ligand (Cat. No. PRN1662, Promega) and incubated overnight at 37 °C, 5% CO2. […] After treatment, NanoBRET Nano-Glo Substrate (cat. no. N1662, Promega) was added into the medium, and the contents were mixed by shaking the plate for 30 s before measuring donor and acceptor signals on Biotek plate reader. Dual-filtered luminescence was collected with a 450/50 nm bandpass filter (donor, NanoBiT-BCL-XL protein or NanoBiT-BCL-2 protein) and a 610-nm longpass filter (acceptor, HaloTag NanoBRET ligand) using an integration time of 0.5 s. mBRET ratios were calculated following the NanoBRET™ Nano-Glo® Detection System (Cat. No. N1662, Promega).

HiBiT-BCL-2/HaloTag-VHL = target: T5, HiBiT-BCL-2/HaloTag-VHL (Homo sapiens, UniProt P10415+P40337); assay: NanoBRET ternary complex formation assay in 293T cells, HiBiT-BCL-2 and HaloTag-VHL; assay type: cell-based; settings: 4 h, MG132 pretreatment
T5 construct: full-length BCL-xL and BCL-2 were expressed in cells for the nanoBRET assay; host or cells: 293T
Description: as §2

BCL-2 R110A = target: T6, BCL-2 R110A (Homo sapiens, UniProt P10415, R110A); assay: AlphaScreen binary binding, BCL-2 R110A; settings: mean ± s.d., n=3
T6 construct: BCL-xL (aa 2-212) and BCL-2 (aa 1-207) transformed cells were grown in LB broth; made in house; host or cells: E. coli BL21 (DE3) codon plus
Description: as §1

human platelets = assay: Potency against human platelets in vitro; assay type: cell-based
[2] = test system: H146 small cell lung cancer cells; assay: Cytotoxicity in H146 SCLC cells in vitro; assay type: cell-based; settings: Figure R4

T1 sequence (Q07817 2-212): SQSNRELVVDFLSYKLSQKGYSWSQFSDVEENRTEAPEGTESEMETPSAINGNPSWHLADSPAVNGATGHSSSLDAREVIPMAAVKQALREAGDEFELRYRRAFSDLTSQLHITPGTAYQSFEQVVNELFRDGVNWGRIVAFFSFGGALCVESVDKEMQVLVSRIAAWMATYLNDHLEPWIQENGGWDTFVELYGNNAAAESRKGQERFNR
T4 sequence (Q07817 whole entry): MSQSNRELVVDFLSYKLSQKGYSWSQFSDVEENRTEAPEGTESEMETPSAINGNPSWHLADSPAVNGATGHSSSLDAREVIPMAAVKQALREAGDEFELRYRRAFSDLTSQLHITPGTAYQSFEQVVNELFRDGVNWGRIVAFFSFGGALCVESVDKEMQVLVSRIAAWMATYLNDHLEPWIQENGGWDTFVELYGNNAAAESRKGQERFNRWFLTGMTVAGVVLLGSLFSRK
T4 sequence (Q15369 whole entry, further chain): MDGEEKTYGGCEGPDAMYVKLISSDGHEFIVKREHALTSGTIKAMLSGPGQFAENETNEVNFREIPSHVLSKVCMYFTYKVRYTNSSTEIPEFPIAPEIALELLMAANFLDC
T4 sequence (Q15370 whole entry, further chain): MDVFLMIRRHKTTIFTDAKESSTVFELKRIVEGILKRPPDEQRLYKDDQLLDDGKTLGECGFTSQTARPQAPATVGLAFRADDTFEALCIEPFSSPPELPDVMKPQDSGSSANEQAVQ
T4 sequence (P40337 whole entry): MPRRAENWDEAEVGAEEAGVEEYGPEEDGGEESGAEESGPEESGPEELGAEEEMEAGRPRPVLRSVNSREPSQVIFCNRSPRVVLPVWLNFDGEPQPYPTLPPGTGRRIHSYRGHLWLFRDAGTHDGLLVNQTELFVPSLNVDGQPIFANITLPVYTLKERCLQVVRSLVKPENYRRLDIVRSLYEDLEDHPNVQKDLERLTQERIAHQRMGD
T5 sequence (P10415 whole entry): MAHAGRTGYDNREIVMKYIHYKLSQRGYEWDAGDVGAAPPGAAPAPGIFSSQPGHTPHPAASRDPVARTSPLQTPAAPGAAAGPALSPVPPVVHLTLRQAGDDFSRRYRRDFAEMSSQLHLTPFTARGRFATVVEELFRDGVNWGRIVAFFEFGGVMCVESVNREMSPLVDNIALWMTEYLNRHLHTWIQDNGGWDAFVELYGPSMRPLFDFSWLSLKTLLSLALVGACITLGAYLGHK
T5 sequence (P40337 whole entry): as the sequence (P40337 whole entry) above
T5 sequence (Q15370 whole entry, further chain): as the sequence (Q15370 whole entry, further chain) above
T5 sequence (Q15369 whole entry, further chain): as the sequence (Q15369 whole entry, further chain) above
T3 sequence (Q15369 17-112): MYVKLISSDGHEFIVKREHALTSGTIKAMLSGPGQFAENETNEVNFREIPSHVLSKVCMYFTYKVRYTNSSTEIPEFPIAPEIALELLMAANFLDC
T3 sequence (Q07817 2-212): as the sequence (Q07817 2-212) above
T3 sequence (Q15370 whole entry, further chain, the tested form may be a part): as the sequence (Q15370 whole entry, further chain) above
T3 sequence (P40337 54-213): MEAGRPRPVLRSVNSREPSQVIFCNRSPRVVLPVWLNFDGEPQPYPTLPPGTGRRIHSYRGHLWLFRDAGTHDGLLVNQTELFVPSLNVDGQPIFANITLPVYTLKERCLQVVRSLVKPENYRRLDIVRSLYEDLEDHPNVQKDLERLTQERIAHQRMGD
T6 sequence (P10415 1-207 R110A): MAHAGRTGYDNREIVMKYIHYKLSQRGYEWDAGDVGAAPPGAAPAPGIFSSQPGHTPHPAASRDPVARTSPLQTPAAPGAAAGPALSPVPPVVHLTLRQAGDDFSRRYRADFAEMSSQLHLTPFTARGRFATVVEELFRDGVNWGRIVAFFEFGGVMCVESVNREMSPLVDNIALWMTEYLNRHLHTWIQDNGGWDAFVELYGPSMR
T2 sequence (Q07817 2-212 D107A): as the sequence (Q07817 2-212) above, with D106A counted along it

SMILES | Kd (WT BCL-xL) [nM] | Ki (WT BCL-xL; mean ± s.d., n=3) [nM] | Ki (BCL-xL D107A) [nM] | Ternary complex formation with BCL-xL (comparison with 753b) [1] | Cellular ternary complex formation with BCL-xL (comparison) (HiBiT-BCL-xL/HaloTag-VHL) | Cellular ternary complex formation with BCL-2 (comparison) (HiBiT-BCL-2/HaloTag-VHL) | Ki (BCL-2 R110A) [nM] | Increase in therapeutic index compared to ABT263 (human platelets) | Potency against H146 cells (comparison with ABT263, DT2216, 753b) [2]
Cc1ncsc1-c1ccc(C(C)NC(=O)C2CC(O)CN2C(=O)C(NC(=O)CCCCCCC(=O)N2CCN(CC3(C)CCC(c4ccc(Cl)cc4)=C(CN4CCN(c5ccc(C(=O)NS(=O)(=O)c6ccc(NC(CCN7CCOCC7)CSc7ccccc7)c(S(=O)(=O)C(F)(F)F)c6)cc5)CC4)C3)CC2)C(C)(C)C)cc1 (stereo not shown) [753b] | ~28 | 21.9 ± 7.3 | 30.3 ± 4.5 | – | – | – | – | – | –
Cc1ncsc1-c1ccc([C@H](C)NC(=O)[C@@H]2C[C@@H](O)CN2C(=O)[C@@H](NC(=O)CN2CCN(CC(=O)N3CCN(C[C@]4(C)CCC(c5ccc(Cl)cc5)=C(CN5CCN(c6ccc(C(=O)NS(=O)(=O)c7ccc(N[C@H](CCN8C[C@@H]9C[C@H]8CO9)CSc8ccccc8)c(S(=O)(=O)C(F)(F)F)c7)cc6)CC5)C4)CC3)CC2)C(C)(C)C)cc1 [WH244] | ~6.14 | – | – | tighter complex | significantly lower compound concentration than 753b | modestly better than 753b | 8 ± 1.2 | more than 100 fold | most potent
